Laboratory results: patent US20230022724A1, “NOVEL IMIDAZOPYRAZINE DERIVATIVES” (Hoffmann-La Roche Inc., priority 2018, published 2023)
Structures can show the parent of a compound that is named as a salt. Where two headings read alike, the source gives them in different places.

Test system: Acinetobacter baumannii ATCC17978
Test: Antimicrobial susceptibility testing: 90% growth inhibitory concentration (IC90) determination
Type: cell-based
Settings: read-out: ATCC17978 IC90
Procedure, shortened: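 Compounds in twofold series (e.g. 50 to 0.097 μM final) in Iso-Sensitest broth, inoculated at ~5×10^5 CFU/ml, incubated at 35±2° C. OD600 was read every 20 minutes for 16 h. IC90 was derived from growth inhibition during logarithmic phase.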

[1] = Acinetobacter baumannii, ATCC17978, 16 h, 90% growth inhibitory concentration, Acinetobacter baumannii ATCC17978, Iso-Sensitest broth, OD 600 nm over 16 h
[2] = Acinetobacter baumannii, ATCC17978, 16 h
[3] = 90% growth inhibitory concentration, Acinetobacter baumannii ATCC17978, Iso-Sensitest broth, OD 600 nm over 16 h

| SMILES | IC90 [2] [µM] | further results |
| --- | --- | --- |
| N#CCOc1ccc(-c2cnc3c(Nc4ccc(C(=O)N5CCOCC5)c(Cl)c4)nccn23)c(F)c1F [Example 79, 2-[4-[8-[3-chloro-4-(morpholine-4-carbonyl)anilino]imidazo[1,2-a]pyrazin-3-yl]-2,3-difluorophenoxy]acetonitrile] | – | IC90 [1]: 0.16 µM |
| COc1ccc(-c2cnc3c(Nc4ccc(C(=O)N5CCC(CN)CC5)c(Br)c4)nccn23)cc1F [Example 80, [4-(aminomethyl)piperidin-1-yl]-[2-bromo-4-[[3-(3-fluoro-4-methoxyphenyl)imidazo[1,2-a]pyrazin-8-yl]amino]phenyl]methanone] | – | IC90 [1]: 0.087 µM |
| COc1ccc(-c2cnc3c(Nc4ccc(C(=O)N5CCN(CCN(C)C)CC5)c(Br)c4)nccn23)cc1F [Example 81, [2-bromo-4-[[3-(3-fluoro-4-methoxyphenyl)imidazo[1,2-a]pyrazin-8-yl]amino]phenyl]-[4-[2-(dimethylamino)ethyl]piperazin-1-yl]methanone;formic acid] | – | IC90 [1]: 0.29 µM |
| Cc1cc(Nc2nccn3c(-c4ccc(OC(F)F)cc4)cnc23)ccc1C(=O)N1CCN(C(=O)N2CCN[C@H](C(=O)O)C2)CC1 [Example 82, (2S)-4-[4-[4-[[3-[4-(difluoromethoxy)phenyl]imidazo [1,2-a]pyrazin-8-yl]amino]-2-methylbenzoyl]piperazine-1-carbonyl]piperazine-2-carboxylic acid;hydrochloride] | 1 | – |
| N#CCOc1ccc(-c2cnc3c(Nc4ccc(C(=O)N5CCC(C(=O)OCC6CNCCN6)CC5)c(Cl)c4)nccn23)c(F)c1F (stereo not drawn) [Example 83, piperazin-2-ylmethyl 1-[2-chloro-4-[[3-[4-(cyanomethoxy)-2,3-difluorophenyl]imidazo[1,2-a]pyrazin-8-yl]amino]benzoyl]piperidine-4-carboxylate;2,2,2-trifluoroacetic acid] | – | IC90 [3]: 0.14 µM |
| CN(C)CCN1CCN(C(=O)c2ccc(Nc3nccn4c(-c5ccc(OCC#N)c(F)c5F)cnc34)cc2Cl)CC1 [Example 84, 2-[4-[8-[3-chloro-4-[4-[2-(dimethylamino)ethyl]piperazine-1-carbonyl]anilino]imidazo[1,2-a]pyrazin-3-yl]-2,3-difluorophenoxy]acetonitrile; 2,2,2-trifluoroacetic acid] | – | IC90 [3]: 0.11 µM |
| N#CCOc1ccc(-c2cnc3c(Nc4ccc(C(=O)N5CCC(C(=O)N6CCN[C@@H](CO)C6)CC5)c(Cl)c4)nccn23)c(F)c1F [Example 85, 2-[4-[8-[3-chloro-4-[4-[(3R)-3-(hydroxymethyl)piperazine-1-carbonyl]piperidine-1-carbonyl]anilino]imidazo[1,2-a]pyrazin-3-yl]-2,3-difluorophenoxy]acetonitrile; formic acid] | 0.046 | – |
| N#CCOc1ccc(-c2cnc3c(Nc4ccc(C(=O)N5CCC(C(=O)N6CCN[C@@H](CO)C6)CC5)c(Cl)c4)nccn23)c(Cl)c1F [Example 86, 2-[3-chloro-4-[8-[3-chloro-4-[4-[(3R)-3-(hydroxymethyl)piperazine-1-carbonyl]piperidine-1-carbonyl]anilino]imidazo[1,2-a]pyrazin-3-yl]-2-fluorophenoxy]acetonitrile; formic acid] | 0.049 | – |
| N#CCOc1ccc(-c2cnc3c(Nc4ccc(C(=O)N5CCC(C(=O)N6CCN[C@H](CO)C6)CC5)c(Cl)c4)nccn23)c(F)c1F [Example 87, 2-[4-[8-[3-chloro-4-[4-[(3S)-3-(hydroxymethyl)piperazine-1-carbonyl]piperidine-1-carbonyl]anilino]imidazo[1,2-a]pyrazin-3-yl]-2,3-difluorophenoxy]acetonitrile; formic acid] | 0.052 | – |
| N#CCOc1ccc(-c2cnc3c(Nc4ccc(C(=O)N5CCC(C(=O)N6CCN[C@H](CO)C6)CC5)c(Cl)c4)nccn23)c(Cl)c1F [Example 88, 2-[3-chloro-4-[8-[3-chloro-4-[4-[(3S)-3-(hydroxymethyl)piperazine-1-carbonyl]piperidine-1-carbonyl]anilino]imidazo[1,2-a]pyrazin-3-yl]-2-fluorophenoxy]acetonitrile; formic acid] | 0.09 | – |
| N#CCOc1ccc(-c2cnc3c(Nc4ccc(C(=O)N5CCN(CCN6CCC(C(N)=O)C6)CC5)c(Cl)c4)nccn23)c(F)c1F (stereo not drawn) [Example 89] | – | IC90 [1]: 0.042 µM |
| N#CCOc1ccc(-c2cnc3c(Nc4ccc(C(=O)N5CCN(CCN6CCC(CO)C6)CC5)c(Cl)c4)nccn23)c(F)c1F (stereo not drawn) [Example 90, 2-[4-[8-[3-chloro-4-[4-[2-[3-(hydroxymethyl)pyrrolidin-1-yl]ethyl]piperazine-1-carbonyl]anilino]imidazo[1,2-a]pyrazin-3-yl]-2,3-difluorophenoxy]acetonitrile; 2,2,2-trifluoroacetic acid] | 0.043 | – |
| CNCCN1CCN(C(=O)c2ccc(Nc3nccn4c(-c5ccc(OCC#N)c(F)c5F)cnc34)cc2Cl)CC1 [Example 91, 2-[4-[8-[3-chloro-4-[4-[2-(methylamino)ethyl]piperazine-1-carbonyl]anilino]imidazo[1,2-a]pyrazin-3-yl]-2,3-difluorophenoxy]acetonitrile; 2,2,2-trifluoroacetic acid] | – | IC90 [1]: 0.049 µM |
| N#CCOc1ccc(-c2cnc3c(Nc4ccc(C(=O)N5CCN(CCN6CC(CO)C6)CC5)c(Cl)c4)nccn23)c(F)c1F [Example 92, 2-[4-[8-[3-chloro-4-[4-[2-[3-(hydroxymethyl)azetidin-1-yl]ethyl]piperazine-1-carbonyl]anilino]imidazo[1,2-a]pyrazin-3-yl]-2,3-difluorophenoxy]acetonitrile; 2,2,2-trifluoroacetic acid] | 0.05 | – |
| N#CCOc1ccc(-c2cnc3c(Nc4ccc(C(=O)N5CCN(CCN6CCCC6CO)CC5)c(Cl)c4)nccn23)c(F)c1F (stereo not drawn) [Example 93, 2-[4-[8-[3-chloro-4-[4-[2-[2-(hydroxymethyl)pyrrolidin-1-yl]ethyl]piperazine-1-carbonyl]anilino]imidazo[1,2-a]pyrazin-3-yl]-2,3-difluorophenoxy]acetonitrile; 2,2,2-trifluoroacetic acid] | 0.053 | – |
| N#CCOc1ccc(-c2cnc3c(Nc4ccc(C(=O)N5CCN(CCN6CC(C(N)=O)C6)CC5)c(Cl)c4)nccn23)c(F)c1F [Example 94, 1-[2-[4-[2-chloro-4-[[3-[4-(cyanomethoxy)-2,3-difluorophenyl]imidazo[1,2-a]pyrazin-8-yl]amino]benzoyl]piperazin-1-yl]ethyl]azetidine-3-carboxamide;2,2,2-trifluoroacetic acid] | – | IC90 [1]: 0.054 µM |
| N#CCOc1ccc(-c2cnc3c(Nc4ccc(C(=O)N5CCN(CCN6CCC(O)C6)CC5)c(Cl)c4)nccn23)c(F)c1F (stereo not drawn) [Example 95, 2-[4-[8-[3-chloro-4-[4-[2-(3-hydroxypyrrolidin-1-yl)ethyl]piperazine-1-carbonyl]anilino]imidazo[1,2-a]pyrazin-3-yl]-2,3-difluorophenoxy]acetonitrile; 2,2,2-trifluoroacetic acid] | 0.056 | – |
| N#CCOc1ccc(-c2cnc3c(Nc4ccc(C(=O)N5CCN(CCN6CC(O)C6)CC5)c(Cl)c4)nccn23)c(F)c1F [Example 96, 2-[4-[8-[3-chloro-4-[4-[2-(3-hydroxyazetidin-1-yl)ethyl]piperazine-1-carbonyl]anilino]imidazo[1,2-a]pyrazin-3-yl]-2,3-difluorophenoxy]acetonitrile; 2,2,2-trifluoroacetic acid] | 0.073 | – |
| COC1CN(CCN2CCN(C(=O)c3ccc(Nc4nccn5c(-c6ccc(OCC#N)c(F)c6F)cnc45)cc3Cl)CC2)C1 [Example 97, 2-[4-[8-[3-chloro-4-[4-[2-(3-methoxyazetidin-1-yl)ethyl]piperazine-1-carbonyl]anilino]imidazo[1,2-a]pyrazin-3-yl]-2,3-difluorophenoxy]acetonitrile; 2,2,2-trifluoroacetic acid] | 0.1 | – |
| CS(=O)(=O)C1CN(CCN2CCN(C(=O)c3ccc(Nc4nccn5c(-c6ccc(OCC#N)c(F)c6F)cnc45)cc3Cl)CC2)C1 [Example 98, 2-[4-[8-[3-chloro-4-[4-[2-(3-methylsulfonylazetidin-1-yl)ethyl]piperazine-1-carbonyl]anilino]imidazo[1,2-a]pyrazin-3-yl]-2,3-difluorophenoxy]acetonitrile; 2,2,2-trifluoroacetic acid] | 0.14 | – |
| CN(C)CC1CN(CCN2CCN(C(=O)c3ccc(Nc4nccn5c(-c6ccc(OCC#N)c(F)c6F)cnc45)cc3Cl)CC2)C1 [Example 99, 2-[4-[8-[3-chloro-4-[4-[2-[3-[(dimethylamino)methyl]azetidin-1-yl]ethyl]piperazine-1-carbonyl]anilino]imidazo[1,2-a]pyrazin-3-yl]-2,3-difluorophenoxy]acetonitrile; 2,2,2-trifluoroacetic acid] | 0.17 | – |
| CN(C)C1CCN(CCN2CCN(C(=O)c3ccc(Nc4nccn5c(-c6ccc(OCC#N)c(F)c6F)cnc45)cc3Cl)CC2)C1 (stereo not drawn) [Example 100, 2-[4-[8-[3-chloro-4-[4-[2-[3-(dimethylamino)pyrrolidin-1-yl]ethyl]piperazine-1-carbonyl]anilino]imidazo[1,2-a]pyrazin-3-yl]-2,3-difluorophenoxy]acetonitrile; 2,2,2-trifluoroacetic acid] | 0.17 | – |
| CN(C)C1CCN(CCN2CCN(C(=O)c3ccc(Nc4nccn5c(-c6ccc(OCC#N)c(F)c6F)cnc45)cc3Cl)CC2)CC1 [Example 101, 2-[4-[8-[3-chloro-4-[4-[2-[4-(dimethylamino)piperidin-1-yl]ethyl]piperazine-1-carbonyl]anilino]imidazo[1,2-a]pyrazin-3-yl]-2,3-difluorophenoxy]acetonitrile; 2,2,2-trifluoroacetic acid] | 0.17 | – |
| CN(C)C1CN(CCN2CCN(C(=O)c3ccc(Nc4nccn5c(-c6ccc(OCC#N)c(F)c6F)cnc45)cc3Cl)CC2)C1 [Example 102, 2-[4-[8-[3-chloro-4-[4-[2-[3-(dimethylamino)azetidin-1-yl]ethyl]piperazine-1-carbonyl]anilino]imidazo[1,2-a]pyrazin-3-yl]-2,3-difluorophenoxy]acetonitrile; 2,2,2-trifluoroacetic acid] | 0.17 | – |
